Assay results published in patent publication US20260345593A1, “ORAL FORMULATION OF N-PYRIDINYL ACETAMIDE DERIVATIVE FOR TREATING INTERSTITIAL LUNG DISEASE” (AstraZeneca AB, priority 2022, published 2026).
Like-named read-outs stand apart in the source and are kept apart here.

Legend:
[1] = Example 2, second clinical study: pharmacokinetics, bioavailability, food and rabeprazole effect; format: in vivo, human; settings: for bioavailability: human, in vivo, po, 20 mg, 20 mg film-coated tablet, fasted, vs IV infusion
Experimental: The study comprises a screening period of maximum 28 days, and five periods during which subjects will participate from Day −1 of Period 1 to 72 hours after the AZD5055 dose in Period 5.
Period 1: On Day 1, the subjects will receive either 5 mg AZD5055 as a 20-minute IV infusion (Treatment A) in an overnight fasted state or AZD5055 20 mg as oral suspension (Treatment B) in an overnight fasted state.
Period 2: On Day 1 (Study Day 4), the subjects will receive 20 mg AZD5055 film-coated tablet (Treatment C) in an overnight fasted state.
Period 3: On Day 1 (Study Day 8) the subjects will receive a standardized high-fat breakfast 30 minutes before 20 mg AZD5055 administered as film-coated tablet (Treatment D).
Period 4: On Study Day 10, three days prior to Day 1, 20 mg rabeprazole will be administered twice daily. On Day 1 (Study Day 13), 20 mg AZD5055 film-coated tablet will be administered together with rabeprazole and rabeprazole dosing will continue twice daily (Treatment E).
Period 5: On Day 1 (Study Day 17) the participants will receive a low-fat breakfast 30 minutes before 20 mg AZD5055 film-coated tablet administered together with 20 mg rabeprazole.
Rabeprazole will continue twice daily, the last dose is on the evening of Study Day 18 (Treatment F).
There will be a minimum washout of 3 days between the AZD5055 dose administration in Period 1 and Period 2 and a minimum washout of 4 days between AZD5055 doses administrations for subsequent study periods. Repeated PK (pharmacokinetic) sampling will be performed pre-dose to 48 hours after dosing of AZD5055 of each period. Subjects will be discharged on Study Day 20 (Day 4 of Period 5), after all the samples have been collected and all the assessments have been performed.
Rabeprazole is administered as oral doses of 20 mg BID in the morning and evening. Pre-treatment with rabeprazole for 3 days is required to reach the PD (pharmacodynamic) steady state of pH elevation prior to administration of AZD5055.
A high-fat, high-calorie breakfast constitutes the following: 2 eggs fried in butter; 2 strips of bacon; 2 slices of toast with butter; 112 g/4 oz of hash-brown potatoes; 240 mL/8 oz of whole milk.
A low-fat, low-calorie breakfast constitutes the following: 1 boiled egg; 1 packet flavoured instant oatmeal made with water; 240 mL/8 oz milk (1% fat).
Pharmacokinetic Parameters—Pharmacokinetic parameters of AZD5055 included, but were not limited to, Cmax, AUCinf, and AUClast.
Approximately 18 healthy participants were enrolled to ensure that at least 15 participants completed the 5-period study. It was expected that the proposed sample size would give adequate information on the effect of formulation and concomitant treatment on the exposure of AZD5055, while exposing as few participants as possible to study procedures. Interpretation of the results were based on the estimated geometric mean ratio (GMR) and the associated 90% confidence interval (CI) between the combination of test and reference for AUC and Cmax.
Plasma concentrations were listed for each participant at each actual sampling time and summarized by treatment and nominal sampling time, using the same descriptive statistics as for the PK parameters. Graphical presentations included individual and geometric mean time-concentration curves (actual sampling time for individual curves and nominal sampling time for mean curves) on linear and semi-logarithmic scale. Pharmacokinetic variables and diagnostics of the PK analysis were listed, and PK variables were summarized by treatment using descriptive statistics (n, geometric mean, geometric coefficient of variation [gCV; %], arithmetic mean, arithmetic standard deviation [SD], minimum [min], median, and maximum [max]) for all variables except tmax, which were summarized using n, min, median, and max. […]

porcupine (PORCN) = settings: statement in words; cited from earlier work
[2] = test system: carbon tetrachloride-induced hepatic fibrosis in mice; settings: mice (Bunyard 2019); cited from earlier work
[3] = test system: renal fibrosis in a UUO model in mice; settings: mice (Bunyard 2019); cited from earlier work
[4] = 20 mg film-coated tablet vs oral suspension
[5] = tablet + rabeprazole fasted vs AZD5055 fasted alone
[6] = tablet + rabeprazole fed vs AZD5055 fasted alone
[7] = tablet with rabeprazole, fed vs fasted

Cc1cc(-c2nccc3c2ccn3CC(=O)Nc2ccc(-c3cnccn3)cn2)ccn1 [AZD5055, 2-[4-(2-methyl-4-pyridyl)pyrrolo[3,2-c]pyridin-1-yl]-N-(5-pyrazin-2-yl-2-pyridyl)acetamide]
reduction in Cmax, tablet vs oral suspension [1, 4]: approximately 35% | total systemic exposure (AUCinf and AUClast), tablet vs oral suspension [1, 4]: comparable | Cmax relative to IV dose ([1]; film-coated tablet, percent of the IV dose): approximately 21% | bioavailability ([1]; read-out: absolute bioavailability based on AUCinf): ~66% | bioavailability ([1]; read-out: absolute bioavailability based on AUClast): ~64% | change in total systemic exposure (AUCinf and AUClast) with rabeprazole, fasted [1, 5]: no change in total systemic exposure | reduction in Cmax with rabeprazole, fasted [1, 5]: 32% | change in total systemic exposure (AUCinf and AUClast) with rabeprazole, fed [1, 6]: no change in total systemic exposure | reduction in Cmax with rabeprazole, fed [1, 6]: 20% | food effect on total systemic exposure with rabeprazole [1, 7]: food did not impact total systemic exposure | increase in Cmax by food with rabeprazole [1, 7]: approximately 17% | inhibition of the intracellular enzyme porcupine (PORCN) (porcupine (PORCN)): potent, and selective inhibitor | carbon tetrachloride-induced hepatic fibrosis [2]: reduces | renal fibrosis, UUO model [3]: reduces
